Data: publication PMC8231556, “Inhibiting Endothelial Cell Function in Normal and Tumor Angiogenesis Using BMP Type I Receptor Macrocyclic Kinase Inhibitors” (Cancers, 2021)

Columns and labels:
Assay in all cases: radiometric kinase profiling (33 PanQinase)
Format in all cases: biochemical
KIT = biological target: T1, KIT (Homo sapiens, UniProt P10721); conditions: read-out: Inhibitory effect (%) KIT
T1 construct: purchased ProQinase (33PanQinase Activity Assay)
Experimental: (§1) The kinase inhibition profile of the compounds was determined by testing 96 protein kinases’ activity using a radiometric protein kinase assay (33 PanQinase® Activity Assay, Proqinase, Germany). In brief, 10 µL of non-radioactive ATP solution (in H2O), 25 µL of assay buffer/[γ-33 P]-ATP mixture, 5 µL of 0.1 μM the tested compound in 10% DMSO and 10 µL of enzyme/substrate were mixed in 96-well FlashPlatesTM (Perkin Elmer, Boston, MA, USA). The reaction was conducted at 30 °C for 60 min. To stop the reaction, 50 µL of 2% (v/v) H3PO4 was added into the protein kinase reaction cocktails. After which, with 200 µL 0.9% (w/v) NaCl twice, the incorporation of ^33 Pi (counting of “cpm”) was determined with a microplate scintillation counter (Wallac Microbeta, Boston, MA, USA). All protein kinase assays were performed using a BeckmanCoulter Biomek 2000/SL robotic system (Brea, CA, USA). The residual activity (in %) for each compound was normalized to 100% enzyme activity (untreated control) and background (negative control).

ACVR1B = biological target: T2, ACVR1B (Homo sapiens, UniProt P36896); conditions: read-out: Inhibitory effect (%) ACVR1B
T2 construct: purchased Proqinase, Germany
T2 sequence (P36896 24-505): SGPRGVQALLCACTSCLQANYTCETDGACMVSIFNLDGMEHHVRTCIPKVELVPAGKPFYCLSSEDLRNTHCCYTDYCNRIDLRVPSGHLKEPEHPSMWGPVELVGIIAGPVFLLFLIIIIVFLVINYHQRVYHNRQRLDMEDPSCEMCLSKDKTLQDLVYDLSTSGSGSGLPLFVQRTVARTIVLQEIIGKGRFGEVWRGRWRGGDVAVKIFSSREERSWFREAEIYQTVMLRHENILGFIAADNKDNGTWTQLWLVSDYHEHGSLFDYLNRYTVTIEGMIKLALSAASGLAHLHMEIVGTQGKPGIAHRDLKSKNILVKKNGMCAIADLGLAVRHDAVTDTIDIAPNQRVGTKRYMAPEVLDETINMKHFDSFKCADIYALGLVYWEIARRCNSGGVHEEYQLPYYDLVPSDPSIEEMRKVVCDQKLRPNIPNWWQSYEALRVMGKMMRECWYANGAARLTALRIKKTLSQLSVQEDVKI
Experimental: as §1

CAMKK1 = biological target: T3, CAMKK1 (Homo sapiens, UniProt Q8N5S9); conditions: read-out: Inhibitory effect (%) CAMKK1
T3 construct: purchased Proqinase, Germany
Experimental: as §1

LRRK2 = biological target: T4, LRRK2 (Homo sapiens, UniProt Q5S007); conditions: read-out: Inhibitory effect (%) LRRK2
T4 construct: purchased ProQinase (33PanQinase Activity Assay)
T4 sequence (Q5S007 whole entry): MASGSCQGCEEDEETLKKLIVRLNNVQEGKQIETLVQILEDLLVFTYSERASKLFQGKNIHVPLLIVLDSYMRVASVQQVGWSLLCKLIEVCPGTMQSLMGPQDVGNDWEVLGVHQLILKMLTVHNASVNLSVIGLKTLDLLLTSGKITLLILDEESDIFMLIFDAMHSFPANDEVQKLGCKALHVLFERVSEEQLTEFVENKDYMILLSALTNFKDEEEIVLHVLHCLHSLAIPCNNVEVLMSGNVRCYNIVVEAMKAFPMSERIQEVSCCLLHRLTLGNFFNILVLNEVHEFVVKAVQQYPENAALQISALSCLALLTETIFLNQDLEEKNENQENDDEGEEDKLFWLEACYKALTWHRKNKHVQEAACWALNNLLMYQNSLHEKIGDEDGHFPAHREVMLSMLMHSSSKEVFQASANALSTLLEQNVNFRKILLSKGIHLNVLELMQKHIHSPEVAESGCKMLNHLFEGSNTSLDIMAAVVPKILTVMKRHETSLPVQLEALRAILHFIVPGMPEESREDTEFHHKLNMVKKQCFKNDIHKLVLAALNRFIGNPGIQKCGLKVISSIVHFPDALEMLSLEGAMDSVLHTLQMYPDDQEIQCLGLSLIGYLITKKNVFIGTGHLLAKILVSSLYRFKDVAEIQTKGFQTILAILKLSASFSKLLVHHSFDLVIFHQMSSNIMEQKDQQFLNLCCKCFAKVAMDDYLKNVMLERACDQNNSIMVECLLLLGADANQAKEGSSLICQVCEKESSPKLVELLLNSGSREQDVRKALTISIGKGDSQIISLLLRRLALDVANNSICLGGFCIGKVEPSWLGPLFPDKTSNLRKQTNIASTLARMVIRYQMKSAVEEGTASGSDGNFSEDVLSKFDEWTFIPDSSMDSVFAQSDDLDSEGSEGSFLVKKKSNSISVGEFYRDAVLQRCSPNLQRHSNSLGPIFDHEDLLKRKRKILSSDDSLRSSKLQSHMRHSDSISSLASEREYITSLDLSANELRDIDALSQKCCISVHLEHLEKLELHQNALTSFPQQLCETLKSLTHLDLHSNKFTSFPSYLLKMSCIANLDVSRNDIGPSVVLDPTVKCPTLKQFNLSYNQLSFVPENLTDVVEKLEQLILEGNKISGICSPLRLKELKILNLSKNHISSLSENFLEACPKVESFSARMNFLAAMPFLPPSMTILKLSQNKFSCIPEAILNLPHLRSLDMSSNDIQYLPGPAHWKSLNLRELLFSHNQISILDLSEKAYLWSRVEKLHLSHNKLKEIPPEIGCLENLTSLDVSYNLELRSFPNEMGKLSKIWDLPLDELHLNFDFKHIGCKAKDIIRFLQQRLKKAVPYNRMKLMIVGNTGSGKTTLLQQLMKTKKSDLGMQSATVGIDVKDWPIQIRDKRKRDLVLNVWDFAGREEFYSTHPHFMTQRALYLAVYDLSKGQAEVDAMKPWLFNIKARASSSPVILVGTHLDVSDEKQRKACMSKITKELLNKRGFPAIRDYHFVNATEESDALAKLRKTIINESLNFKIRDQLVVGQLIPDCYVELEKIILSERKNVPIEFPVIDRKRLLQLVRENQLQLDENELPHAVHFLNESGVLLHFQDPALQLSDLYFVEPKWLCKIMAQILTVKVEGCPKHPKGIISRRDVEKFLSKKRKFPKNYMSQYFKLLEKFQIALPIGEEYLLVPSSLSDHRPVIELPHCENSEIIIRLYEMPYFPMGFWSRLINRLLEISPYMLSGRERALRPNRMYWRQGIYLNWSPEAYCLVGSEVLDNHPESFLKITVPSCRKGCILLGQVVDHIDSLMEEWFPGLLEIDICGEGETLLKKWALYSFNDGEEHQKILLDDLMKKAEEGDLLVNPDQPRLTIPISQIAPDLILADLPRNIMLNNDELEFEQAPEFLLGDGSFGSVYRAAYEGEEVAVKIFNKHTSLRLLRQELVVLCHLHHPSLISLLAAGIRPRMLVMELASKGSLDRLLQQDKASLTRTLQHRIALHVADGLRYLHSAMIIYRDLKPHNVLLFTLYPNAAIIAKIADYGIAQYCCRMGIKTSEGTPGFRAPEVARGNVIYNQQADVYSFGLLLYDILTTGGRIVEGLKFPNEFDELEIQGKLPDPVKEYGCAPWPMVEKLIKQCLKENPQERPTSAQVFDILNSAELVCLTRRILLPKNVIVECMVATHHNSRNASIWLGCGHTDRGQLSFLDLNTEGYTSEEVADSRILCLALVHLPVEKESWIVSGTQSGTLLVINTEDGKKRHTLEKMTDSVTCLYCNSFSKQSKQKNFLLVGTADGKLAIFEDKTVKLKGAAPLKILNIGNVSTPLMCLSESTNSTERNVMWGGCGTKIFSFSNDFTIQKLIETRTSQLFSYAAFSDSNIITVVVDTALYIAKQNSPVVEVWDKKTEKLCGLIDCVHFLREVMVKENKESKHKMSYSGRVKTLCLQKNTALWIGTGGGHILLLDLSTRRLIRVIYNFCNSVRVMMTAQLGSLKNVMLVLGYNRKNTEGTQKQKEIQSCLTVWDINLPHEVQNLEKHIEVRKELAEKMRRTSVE
Experimental: as §1

AKT1 = biological target: T5, AKT1 (Homo sapiens, UniProt P31749); conditions: read-out: Inhibitory effect (%) AKT1
T5 construct: purchased Proqinase, Germany
T5 sequence (P31749 whole entry): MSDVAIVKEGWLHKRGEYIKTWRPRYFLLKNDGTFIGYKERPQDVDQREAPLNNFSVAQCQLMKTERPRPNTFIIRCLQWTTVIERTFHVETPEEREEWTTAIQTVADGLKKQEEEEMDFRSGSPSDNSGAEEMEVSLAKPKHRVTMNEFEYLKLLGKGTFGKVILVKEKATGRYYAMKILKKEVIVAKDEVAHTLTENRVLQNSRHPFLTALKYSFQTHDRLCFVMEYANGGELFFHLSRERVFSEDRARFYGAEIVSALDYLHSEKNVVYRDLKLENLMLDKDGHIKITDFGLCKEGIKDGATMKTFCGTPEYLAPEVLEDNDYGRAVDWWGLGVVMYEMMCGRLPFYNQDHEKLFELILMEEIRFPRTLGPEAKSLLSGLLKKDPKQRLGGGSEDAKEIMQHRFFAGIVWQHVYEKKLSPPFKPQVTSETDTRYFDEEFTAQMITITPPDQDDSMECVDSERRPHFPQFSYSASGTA
Experimental: as §1

PDK1 = biological target: T6, PDK1 (Homo sapiens, UniProt O15530); conditions: read-out: Inhibitory effect (%) PDK1
T6 construct: purchased ProQinase (33PanQinase Activity Assay)
T6 sequence (O15530 1-556): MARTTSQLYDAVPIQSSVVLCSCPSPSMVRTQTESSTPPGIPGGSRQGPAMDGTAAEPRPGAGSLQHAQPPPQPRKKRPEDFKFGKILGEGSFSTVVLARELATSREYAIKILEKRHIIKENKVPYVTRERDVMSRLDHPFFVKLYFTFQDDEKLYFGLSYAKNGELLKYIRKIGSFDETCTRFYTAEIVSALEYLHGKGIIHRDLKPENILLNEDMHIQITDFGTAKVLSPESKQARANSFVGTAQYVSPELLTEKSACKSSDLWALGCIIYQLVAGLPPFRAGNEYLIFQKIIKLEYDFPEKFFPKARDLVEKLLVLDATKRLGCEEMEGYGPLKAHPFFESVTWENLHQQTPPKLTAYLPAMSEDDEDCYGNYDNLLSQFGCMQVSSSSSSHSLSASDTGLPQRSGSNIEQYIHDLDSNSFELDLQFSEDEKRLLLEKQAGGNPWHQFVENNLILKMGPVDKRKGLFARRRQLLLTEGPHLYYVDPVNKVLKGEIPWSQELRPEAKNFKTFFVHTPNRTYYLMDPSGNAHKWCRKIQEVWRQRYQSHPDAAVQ
Experimental: as §1

EPHB4 = biological target: T7, EPHB4 (Homo sapiens, UniProt P54760); conditions: read-out: Inhibitory effect (%) EPHB4
T7 construct: purchased ProQinase (33PanQinase Activity Assay)
T7 sequence (P54760 16-987): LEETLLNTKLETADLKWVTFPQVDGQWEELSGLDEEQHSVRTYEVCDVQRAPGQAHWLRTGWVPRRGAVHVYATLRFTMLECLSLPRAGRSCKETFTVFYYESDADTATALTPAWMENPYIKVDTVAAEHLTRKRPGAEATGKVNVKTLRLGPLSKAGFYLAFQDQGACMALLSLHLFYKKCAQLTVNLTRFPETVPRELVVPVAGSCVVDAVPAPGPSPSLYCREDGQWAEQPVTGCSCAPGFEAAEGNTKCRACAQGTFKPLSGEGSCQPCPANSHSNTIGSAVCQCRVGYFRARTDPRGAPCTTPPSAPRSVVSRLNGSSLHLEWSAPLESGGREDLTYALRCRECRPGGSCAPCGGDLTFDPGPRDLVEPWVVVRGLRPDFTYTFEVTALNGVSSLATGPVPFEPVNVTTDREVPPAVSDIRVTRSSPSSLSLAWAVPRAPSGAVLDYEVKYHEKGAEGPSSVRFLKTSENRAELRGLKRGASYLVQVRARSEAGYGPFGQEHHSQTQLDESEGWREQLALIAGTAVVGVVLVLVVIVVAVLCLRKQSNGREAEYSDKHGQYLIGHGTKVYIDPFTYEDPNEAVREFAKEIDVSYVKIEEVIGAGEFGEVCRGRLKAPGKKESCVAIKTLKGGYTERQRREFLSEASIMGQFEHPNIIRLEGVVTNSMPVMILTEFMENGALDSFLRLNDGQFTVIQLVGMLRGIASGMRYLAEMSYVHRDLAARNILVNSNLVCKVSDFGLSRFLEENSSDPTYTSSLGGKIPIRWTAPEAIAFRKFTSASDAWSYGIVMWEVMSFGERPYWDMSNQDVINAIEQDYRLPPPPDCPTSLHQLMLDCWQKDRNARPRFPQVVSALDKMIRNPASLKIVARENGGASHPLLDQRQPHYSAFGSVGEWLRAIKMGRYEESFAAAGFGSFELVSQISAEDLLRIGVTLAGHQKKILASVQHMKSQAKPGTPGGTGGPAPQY
Experimental: as §1

CHEK2 = biological target: T8, CHEK2 (Homo sapiens, UniProt O96017); conditions: read-out: Inhibitory effect (%) CHEK2
T8 construct: purchased Proqinase, Germany
T8 sequence (O96017 whole entry): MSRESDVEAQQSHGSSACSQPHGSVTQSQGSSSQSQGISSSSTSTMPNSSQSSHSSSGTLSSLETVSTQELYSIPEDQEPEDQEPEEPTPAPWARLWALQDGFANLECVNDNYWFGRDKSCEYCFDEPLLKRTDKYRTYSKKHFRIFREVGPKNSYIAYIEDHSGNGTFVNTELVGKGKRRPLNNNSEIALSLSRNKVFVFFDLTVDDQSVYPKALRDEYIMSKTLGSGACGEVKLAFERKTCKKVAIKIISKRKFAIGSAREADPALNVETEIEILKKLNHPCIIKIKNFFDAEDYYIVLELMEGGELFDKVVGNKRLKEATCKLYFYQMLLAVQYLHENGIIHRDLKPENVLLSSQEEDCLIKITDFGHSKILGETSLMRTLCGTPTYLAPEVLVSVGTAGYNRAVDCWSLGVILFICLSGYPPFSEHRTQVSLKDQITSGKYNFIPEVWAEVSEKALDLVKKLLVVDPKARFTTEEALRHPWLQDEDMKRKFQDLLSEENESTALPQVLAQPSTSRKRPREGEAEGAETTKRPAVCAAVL
Experimental: as §1

RPS6KB1 = biological target: T9, RPS6KB1 (Homo sapiens, UniProt P23443); conditions: read-out: Inhibitory effect (%) RPS6KB1
T9 construct: purchased ProQinase (33PanQinase Activity Assay)
T9 sequence (P23443 whole entry): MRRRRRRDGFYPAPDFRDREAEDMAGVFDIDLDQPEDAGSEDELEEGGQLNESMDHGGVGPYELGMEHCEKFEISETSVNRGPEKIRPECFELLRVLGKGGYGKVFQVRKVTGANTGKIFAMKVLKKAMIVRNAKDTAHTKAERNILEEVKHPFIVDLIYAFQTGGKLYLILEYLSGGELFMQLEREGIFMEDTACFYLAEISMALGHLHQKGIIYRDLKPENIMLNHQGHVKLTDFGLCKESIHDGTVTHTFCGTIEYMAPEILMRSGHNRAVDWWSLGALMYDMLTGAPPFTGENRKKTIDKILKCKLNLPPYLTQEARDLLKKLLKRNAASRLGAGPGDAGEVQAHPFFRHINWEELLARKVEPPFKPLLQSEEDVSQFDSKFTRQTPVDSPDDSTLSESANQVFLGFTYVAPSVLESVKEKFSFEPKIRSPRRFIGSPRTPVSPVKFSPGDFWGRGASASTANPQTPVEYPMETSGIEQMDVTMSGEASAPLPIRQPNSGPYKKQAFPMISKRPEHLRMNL
Experimental: as §1

T1 sequence (P10721 26-976): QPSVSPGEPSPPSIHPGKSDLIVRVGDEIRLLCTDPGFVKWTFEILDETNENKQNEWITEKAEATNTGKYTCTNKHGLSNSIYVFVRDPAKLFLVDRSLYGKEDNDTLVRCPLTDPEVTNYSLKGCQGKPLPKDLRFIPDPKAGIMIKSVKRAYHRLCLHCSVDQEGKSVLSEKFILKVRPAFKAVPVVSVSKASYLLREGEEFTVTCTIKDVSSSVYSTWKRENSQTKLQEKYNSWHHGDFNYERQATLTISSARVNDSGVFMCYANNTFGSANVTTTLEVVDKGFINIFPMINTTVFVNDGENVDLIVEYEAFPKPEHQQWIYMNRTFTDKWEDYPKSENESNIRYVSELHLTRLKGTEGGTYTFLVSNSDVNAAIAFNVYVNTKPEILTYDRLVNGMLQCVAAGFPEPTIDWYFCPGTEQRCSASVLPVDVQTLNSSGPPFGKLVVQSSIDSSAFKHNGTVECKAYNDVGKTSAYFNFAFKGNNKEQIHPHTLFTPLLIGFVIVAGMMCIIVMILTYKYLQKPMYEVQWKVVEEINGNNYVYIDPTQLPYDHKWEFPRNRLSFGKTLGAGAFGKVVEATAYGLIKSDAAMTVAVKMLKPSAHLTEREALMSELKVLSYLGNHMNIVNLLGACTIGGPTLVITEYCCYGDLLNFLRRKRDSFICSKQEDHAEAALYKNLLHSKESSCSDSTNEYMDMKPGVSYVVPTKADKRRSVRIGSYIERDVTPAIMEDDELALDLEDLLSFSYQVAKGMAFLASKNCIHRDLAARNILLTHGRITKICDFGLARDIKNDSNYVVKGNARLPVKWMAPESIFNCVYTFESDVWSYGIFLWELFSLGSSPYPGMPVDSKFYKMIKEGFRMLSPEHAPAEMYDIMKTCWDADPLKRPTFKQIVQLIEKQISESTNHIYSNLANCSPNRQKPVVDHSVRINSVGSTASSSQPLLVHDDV

Structure (SMILES)	inhibition at 0.1 µM (KIT) [%]	inhibition at 0.1 µM (ACVR1B) [%]	inhibition at 0.1 µM (CAMKK1) [%]	inhibition at 0.1 µM (LRRK2) [%]	inhibition at 0.1 µM (AKT1) [%]	inhibition at 0.1 µM (PDK1) [%]	inhibition at 0.1 µM (EPHB4) [%]	inhibition at 0.1 µM (CHEK2) [%]	inhibition at 0.1 µM (RPS6KB1) [%]
CN1CCC(=O)NCCNc2ccn3ncc(c3n2)-c2cccc(c2)C1 [OD29]	7.49	5.71	-29.5	13.8	-2.83	-1.4	3.64	-0.87	-3.52
c1ccc2c(-c3cnn4cc(-c5ccc(N6CCNCC6)cc5)cnc34)ccnc2c1 [LDN-193189, reference compound]	-20.3	23.9	0.77	5.16	16.1	-8.72	4.39	-0.88	13
CN1CCc2cccc(c2)Nc2nccc(n2)N2CCCc3cc(ccc32)C1 [OD16]	33	7.78	-1.72	18.4	-4.07	-7.16	-36.6	7.12	-15
